Test results published in patent US20240246946A1, “MODULATORS OF TREX1” (Constellation Pharmaceuticals, Inc., priority 2021, published 2024).
pIC50: −log10 of the molar value.

Columns and labels:
full length human TREX1 = biological target: T1, full length human TREX1 (Homo sapiens, UniProt Q9NSU2); test: hTREX1 Biochemical Assay (fluorescence, dsDNA substrate degradation); conditions: biochemical, read-out: hTREX1 IC50
T1 construct: N-terminally His-Tev tagged full length human TREX1; made in house; host or cells: E. coli
T1 sequence (Q9NSU2 1-314): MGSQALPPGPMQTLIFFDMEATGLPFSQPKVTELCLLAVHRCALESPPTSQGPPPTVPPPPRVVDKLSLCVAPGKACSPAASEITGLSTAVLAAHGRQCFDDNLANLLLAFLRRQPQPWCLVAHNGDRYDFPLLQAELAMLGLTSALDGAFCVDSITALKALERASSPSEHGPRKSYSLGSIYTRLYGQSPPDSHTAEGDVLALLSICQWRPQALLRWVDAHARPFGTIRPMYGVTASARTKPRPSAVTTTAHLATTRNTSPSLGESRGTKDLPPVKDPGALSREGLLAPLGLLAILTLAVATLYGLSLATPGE
In short: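 Cleavage of 60 nM TEX615/quencher-labelled dsDNA in pH 7.4 Tris buffer with 5 mM MgCl2, 1.0% DMSO, run 18 hours at 25° C, EDTA-quenched; fluorescence read-out.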

full length mouse TREX1 = biological target: T2, full length mouse TREX1 (Mus musculus, UniProt Q91XB0); test: mTREX1 Biochemical Assay (fluorescence, dsDNA substrate degradation); conditions: biochemical, read-out: mTREX1 IC50
T2 construct: N-terminally His-Tev tagged full length mouse TREX1; made in house; host or cells: E. coli
T2 sequence (Q91XB0 1-314): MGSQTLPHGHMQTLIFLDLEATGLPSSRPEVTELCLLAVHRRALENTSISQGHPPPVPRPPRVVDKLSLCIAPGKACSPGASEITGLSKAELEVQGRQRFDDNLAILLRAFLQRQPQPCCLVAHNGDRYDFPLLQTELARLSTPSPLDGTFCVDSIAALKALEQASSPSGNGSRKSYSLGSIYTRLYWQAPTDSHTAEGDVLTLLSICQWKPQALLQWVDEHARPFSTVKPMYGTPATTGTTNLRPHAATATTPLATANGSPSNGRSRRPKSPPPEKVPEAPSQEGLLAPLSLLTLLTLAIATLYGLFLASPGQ
In short: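 Reaction run 18 h at 25° C. with 60 nM TEX615/quencher-labelled dsDNA and 6 pM mouse TREX1 in Tris buffer (pH 7.4, 5 mM MgCl2, 1.0% DMSO), enzyme having sat 4 h with compound across 10 concentrations. EDTA quench; substrate degradation measured as fluorescence increase.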

[1] = biological target: T3, human TREX2 (residues M44-A279) (Homo sapiens, UniProt Q9BQ50); test: hTREX2 Biochemical Assay (fluorescence, dsDNA substrate degradation); conditions: biochemical selectivity for hTREX1 vs hTREX2
T3 construct: human TREX2 (residues M44-A279, expressed in E. coli); made in house; host or cells: E. coli
T3 sequence (Q9BQ50 44-279 isoform Q9BQ50-1): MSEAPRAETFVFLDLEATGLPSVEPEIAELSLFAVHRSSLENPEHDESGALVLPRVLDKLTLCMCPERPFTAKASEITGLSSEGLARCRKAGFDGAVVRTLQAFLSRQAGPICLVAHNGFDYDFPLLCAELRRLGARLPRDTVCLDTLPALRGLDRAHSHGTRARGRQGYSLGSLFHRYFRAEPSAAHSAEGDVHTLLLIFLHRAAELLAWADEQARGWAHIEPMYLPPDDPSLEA
In short: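 N-His-Tev E. coli enzyme (50 pM) pre-incubated with compound 4 h at 25 °C, then 60 nM TEX615/quencher dsDNA added; 18 h at 25 °C, pH 7.4 Tris buffer with 5 mM MgCl2, 1.0% DMSO. EDTA-quenched; fluorescence 570 ex/615 em from liberated fluorophore, 10-point dose-response.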

hTREX1 = biological target: T4, hTREX1 (Homo sapiens, UniProt Q9NSU2); test: hTREX1 HCT116 Cell Assay (HCT116 dual cells, Lucia luciferase reporter of Type I interferon induction); format: cell-based; conditions: TREX1i 4 h before pBR322/BstNI transfection, read after 48 h
T4 construct: host or cells: HCT116 dual cells
T4 sequence (Q9NSU2 1-314): T1 sequence (Q9NSU2 1-314)
Excerpt: HCT116 dual cells (Invivogen, San Diego, CA, USA) are derived from the human HCT116 colorectal carcinoma cell line. Cells have been selected for the stable integration of SEAP and Luciferase reporter genes, which expression is under the control of 5 tandem response elements for NF-KB/AP1 and STAT1/STAT2, respectively. The cell line was used to monitor Type I interferon induction and subsequent signaling by measuring the activity of the Lucia luciferase secreted in the culture medium.
HCT116 cells were plated in 96-well plate(s) at 40,000 cells/well in 100 uL DMEM supplemented with 10% FBS and 25 mM Hepes (pH 7.2-7.5). After overnight settling, cells were treated with TREX1i for 4 h (maximum DMSO fraction was 0.1%) before 1 ug/mL pBR322/BstNI restriction digest (New England Biolabs, Ipswich, MA, USA) was transfected with Lipofectamine LTX (ThermoFisher, Grand Island, NY, USA), according to product manual recommendations. Briefly, Lipofectamine LTX (0.35 uL/well) was diluted in OptiMEM (5 uL/well). pBR322/BstNI (100 ng/well) was diluted in OptiMEM (5 uL/well) before Plus reagent (0.1 uL/100 ng DNA) was added. After 5 min incubation at room temperature, the DNA mixture was mixed dropwise with the diluted Lipofectamine LTX. After an additional 10 min incubation, the transfection mix (10 uL/well) was added to the cells. Cells were maintained at 37 C for 48 h before monitoring the Lucia Luciferase activity from the cell culture medium.

| Structure (SMILES) | pIC50 (full length human TREX1) | pIC50 (full length mouse TREX1) | hTREX1 vs hTREX2 selectivity [1] | pIC50 (hTREX1) |
| --- | --- | --- | --- | --- |
| Cc1cc(C(c2ccccc2C#N)C(C)c2nc(C(=O)Nc3cnoc3)c(O)c(=O)n2C)ccn1 (single isomer, unassigned) [Example 6 D1E1] | > 9.00 | > 9.00 | C (C = >50 fold selective for hTREX1) | > 8.00 |
| Cc1cnc(C)c(C(c2ccccc2Cl)C(C)c2nc(C(=O)Nc3cnoc3)c(O)c(=O)n2C)n1 (single isomer, unassigned) [Example 120 D2E2] | < 8.00 | < 8.00 | C (C = >50 fold selective for hTREX1) | < 7.00 |
| COC(C)(C)Cn1cc(C(c2cc(F)ccc2Cl)C(C)c2nc(C(=O)Nc3cnoc3)c(O)c(=O)n2C)cn1 (single isomer, unassigned) [Example 93 D1E1] | 8.00 to 9.00 | 8.00 to 9.00 | B (B = 25 to 50-fold selective for hTREX1) | 7.00 to 8.00 |
| CC(c1nc(C(=O)Nc2cnoc2)c(O)c(=O)n1C)C(c1cnn(CCN(C)C)c1)c1ccccc1C#N (single isomer, unassigned) [Example 33 D1E1] | 8.00 to 9.00 | 8.00 to 9.00 | C (C = >50 fold selective for hTREX1) | < 7.00 |
| COCCn1ncc(C(c2cc(F)ccc2C#N)C(C)c2nc(C(=O)Nc3cnoc3)c(O)c(=O)n2C)c1C (single isomer, unassigned) [Example 104 D1E1] | 8.00 to 9.00 | 8.00 to 9.00 | B (B = 25 to 50-fold selective for hTREX1) | < 7.00 |
| CC(c1nc(C(=O)Nc2cnoc2)c(O)c(=O)n1C)C(c1cnn(C)c1)c1cc(C(F)(F)F)ccc1C#N (single isomer, unassigned) [Example 29 D1E1] | > 9.00 | 8.00 to 9.00 | C (C = >50 fold selective for hTREX1) | > 8.00 |
| CC(c1nc(C(=O)Nc2cnoc2)c(O)c(=O)n1C)C(c1ccccc1Cl)c1cnn(C)c1C#N (single isomer, unassigned) [Example 96 D2E2] | > 9.00 | 8.00 to 9.00 | C (C = >50 fold selective for hTREX1) | > 8.00 |
| CCn1cc(C(c2cc(F)ccc2Cl)C(C)c2nc(C(=O)Nc3cnoc3)c(O)c(=O)n2C)cn1 (single isomer, unassigned) [Example 60 D1E1] | > 9.00 | 8.00 to 9.00 | B (B = 25 to 50-fold selective for hTREX1) | 7.00 to 8.00 |
| CCn1cc(C(c2ccccc2C#N)C(C)c2nc(C(=O)Nc3cnoc3)c(O)c(=O)n2C)c(C)n1 (single isomer, unassigned) [Example 70 D1E1] | > 9.00 | > 9.00 | C (C = >50 fold selective for hTREX1) | > 8.00 |
| CC(c1nc(C(=O)Nc2cnoc2)c(O)c(=O)n1C)C(c1cnn(CCN2CCN(C(=O)OC(C)(C)C)CC2)c1)c1ccccc1C#N (single isomer, unassigned) [Example 21 D1E1] | > 9.00 | 8.00 to 9.00 | C (C = >50 fold selective for hTREX1) | 7.00 to 8.00 |
| CC(c1nc(C(=O)Nc2cnoc2)c(O)c(=O)n1C)C(c1ccccc1C#N)c1c[nH]nc1F (single isomer, unassigned) [Example 127 D1E1] | > 9.00 | > 9.00 | B (B = 25 to 50-fold selective for hTREX1) | > 8.00 |
| CC(c1nc(C(=O)Nc2cnoc2)c(O)c(=O)n1C)C(c1ccccc1C#N)c1c(C#N)cnn1C (single isomer, unassigned) [Example 52 D1E1] | 8.00 to 9.00 | < 8.00 |  | 7.00 to 8.00 |
| CC(c1nc(C(=O)Nc2cnoc2)c(O)c(=O)n1C)C(c1cnn(C)c1)c1c(C#N)cccc1C#N (single isomer, unassigned) [Example 19 D1E2] | > 9.00 | 8.00 to 9.00 |  | > 8.00 |
| CC(c1nc(C(=O)Nc2cnoc2)c(O)c(=O)n1C)C(c1cnn(CCN2CCN(C)CC2)c1)c1ccccc1C#N (single isomer, unassigned) [Example 32 D1E1] | > 9.00 | 8.00 to 9.00 |  | < 7.00 |
| CC(c1nc(C(=O)Nc2cnoc2)c(O)c(=O)n1C)C(c1ccccc1C#N)c1cn(C)nc1C#N (single isomer, unassigned) [Example 10 D1E2] | 8.00 to 9.00 | < 8.00 |  | 7.00 to 8.00 |
| CC(c1nc(C(=O)Nc2cnoc2)c(O)c(=O)n1C)C(c1cnn(CCCN(C)C)c1)c1ccccc1C#N (single isomer, unassigned) [Example 34 D1E1] | > 9.00 | 8.00 to 9.00 |  | < 7.00 |
| COCCn1cc(C(c2cc(F)ccc2C#N)C(C)c2nc(C(=O)Nc3cnoc3)c(O)c(=O)n2C)cn1 (single isomer, unassigned) [Example 18 D1E2] | > 9.00 | 8.00 to 9.00 |  | < 7.00 |
| Cc1ccc(C(c2ccccc2C#N)C(C)c2nc(C(=O)Nc3cnoc3)c(O)c(=O)n2C)cn1 (single isomer, unassigned) [Example 5 D2E2] | 8.00 to 9.00 | < 8.00 |  | < 7.00 |
| CCn1ncc(C(c2ccccc2C#N)C(C)c2nc(C(=O)Nc3cnoc3)c(O)c(=O)n2C)c1C (single isomer, unassigned) [Example 68 D1E1] | > 9.00 | > 9.00 |  | > 8.00 |
| Cc1nn(C)c(C)c1C(c1ccccc1C#N)C(C)c1nc(C(=O)Nc2cnoc2)c(O)c(=O)n1C (single isomer, unassigned) [Example 78 D2E1] | 8.00 to 9.00 | < 8.00 |  | 7.00 to 8.00 |
| Cc1nn(C)cc1C(c1cc(F)ccc1Cl)C(C)c1nc(C(=O)Nc2cnoc2)c(O)c(=O)n1C (single isomer, unassigned) [Example 62 D2E2] | > 9.00 | 8.00 to 9.00 |  | > 8.00 |
| CC(c1nc(C(=O)Nc2cnoc2)c(O)c(=O)n1C)C(c1cnn(C(F)F)c1)c1ccccc1C#N (single isomer, unassigned) [Example 38 D2E2] | 8.00 to 9.00 | < 8.00 |  | < 7.00 |
| Cc1cc(C(c2ccccc2C#N)C(C)c2nc(C(=O)Nc3cnoc3)c(O)c(=O)n2C)ccn1 (single isomer, unassigned) [Example 6 D2E2] | 8.00 to 9.00 | < 8.00 |  | < 7.00 |
| CC(c1nc(C(=O)Nc2cnoc2)c(O)c(=O)n1C)C(c1cnn(C)c1)c1ccncc1C#N (single isomer, unassigned) [Example 8 D1E2] | > 9.00 | 8.00 to 9.00 |  | 7.00 to 8.00 |
